Results from article PMC10331583, “Control of fibrosis with enhanced safety via asymmetric inhibition of prolyl‐tRNA synthetase 1” (EMBO Molecular Medicine, 2023).
“And” between values parts separate entries of the source, which are not always exact repeats. Identical values can stand only once. Like-named read-outs stand apart in the source and are kept apart here.

Key:
WI‐26 VA4 cells [1] = test: Puromycin incorporation assay; type: cell-based, human; conditions: log(inhibitor) vs. response, variable slope (four parameters); concentration in nM
Protocol: After being rinsed with cold PBS twice, the cells were collected and resuspended in 200 μl of the carbonate bicarbonate buffer (Sigma Aldrich, C3041‐50CAP) with protease inhibitor. The cell lysates were obtained by sonication and centrifugation at 20,000 g for 15 min at 4°C. After protein quantification using a Pierce™ BCA Protein Assay Kit (Thermo Fisher Scientific, 23225), 400 ng of the proteins was coated to ELISA plates for 18 h at 4°C. […] The plates were rinsed with the washing buffer for three times after each antibody incubation step. […] The amount of puromycin incorporated in proteins was determined by measuring the absorbance at 450 nm (reference wavelength at 620 nm). Experimental values marked in red with strikethrough text in the Figure Source Data file were excluded from the analysis. These values were determined by considering the values of biological and technical replicates under the same condition, as well as the values at the former and later chemical concentrations.

[2] = CellTiter‐Glo assay (cytotoxicity); conditions: human, WI-26 VA4 cells
Protocol: (§1) After 24 h, the cells were incubated with various concentrations of compounds for 48 h. The level of ATP as a measure of cell viability was determined using a CellTiter‐Glo® luminescent cell viability assay kit (Promega, G7571) following the manufacturer's instructions.
(§2) WI‐26 VA4 cells were seeded at 1.2 × 10^4 cells/well in 96‐well white plates. After 24 h, the cells were incubated with the indicated concentrations of compounds for 72 h. The viability was determined as described above.

WI‐26 VA4 cells [3] = test: CellTiter‐Glo assay (cytotoxicity); conditions: for activity at 0.003 µM / activity at 0.01 µM / activity at 0.03 µM / activity at 0.1 µM / activity at 0.3 µM / activity at 1 µM / activity at 3 µM / activity at 10 µM / activity at 30 µM / activity at 100 µM: Homo sapiens
Protocol: as §1, §2

WI‐26 VA4 cells [4] = test: Collagen ELISA (secreted pro‐collagen I)
Protocol: WI‐26 VA4 cells were seeded at 3.5 × 10^4 cells/well on 24 well plates. After 24 h, the cells were starved of serum for 6 h. Then, the cells were incubated with the indicated concentrations of compounds in the presence of TGF‐β (2 ng/ml) (R&D systems, 240‐B‐002) for 72 h. The supernatant of the cells was collected and centrifuged at 500 g for 5 min to remove cell debris. Then, the level of pro‐collagen I in the supernatant was determined using Human Pro‐collagen I alpha 1 DuoSet ELISA (R&D systems, DY6220‐05) and DuoSet ELISA Ancillary Reagent Kit 2 (R&D systems, DY008) following the manufacturer's instructions.

[5] = log(inhibitor) vs. response, variable slope (four parameters), concentration in nM

## Cc1c(Cl)ccc2c1ncn2CC(=O)C[C@H]1NCCC[C@@H]1O [DWN11748]
WI‐26 VA4 cells [1]
  Puromycin, LogIC50 (best-fit value): 3.428
[2]
  CC50 at 72 h: 1440 nM
WI‐26 VA4 cells [3]; WI26VA4, read-out: CellTiter-Glo % of control, 3 nM, Experiment #1, replicates
  activity at 0.003 µM: 99.9%
WI‐26 VA4 cells [3]; WI26VA4, read-out: CellTiter-Glo % of control, 3 nM, Experiment #2, replicates
  activity at 0.003 µM: 90.9%
WI‐26 VA4 cells [3]; WI26VA4, read-out: CellTiter-Glo % of control, 10 nM, Experiment #1, replicates
  activity at 0.01 µM: 90.9%
WI‐26 VA4 cells [3]; WI26VA4, read-out: CellTiter-Glo % of control, 10 nM, Experiment #2, replicates
  activity at 0.01 µM: 98.9%
WI‐26 VA4 cells [3]; WI26VA4, read-out: CellTiter-Glo % of control, 30 nM, Experiment #1, replicates
  activity at 0.03 µM: 91.9%
WI‐26 VA4 cells [3]; WI26VA4, read-out: CellTiter-Glo % of control, 30 nM, Experiment #2, replicates
  activity at 0.03 µM: 83.2%
WI‐26 VA4 cells [3]; WI26VA4, read-out: CellTiter-Glo % of control, 100 nM, Experiment #1, replicates
  activity at 0.1 µM: 103%
WI‐26 VA4 cells [3]; WI26VA4, read-out: CellTiter-Glo % of control, 100 nM, Experiment #2, replicates
  activity at 0.1 µM: 86%
WI‐26 VA4 cells [3]; WI26VA4, read-out: CellTiter-Glo % of control, 300 nM, Experiment #1, replicates
  activity at 0.3 µM: 83.6%
WI‐26 VA4 cells [3]; WI26VA4, read-out: CellTiter-Glo % of control, 300 nM, Experiment #2, replicates
  activity at 0.3 µM: 68.5%
WI‐26 VA4 cells [3]; WI26VA4, read-out: CellTiter-Glo % of control, 1000 nM, Experiment #1, replicates
  activity at 1 µM: 70.6%
WI‐26 VA4 cells [3]; WI26VA4, read-out: CellTiter-Glo % of control, 1000 nM, Experiment #2, replicates
  activity at 1 µM: 67.6%
WI‐26 VA4 cells [3]; WI26VA4, read-out: CellTiter-Glo % of control, 3000 nM, Experiment #1, replicates
  activity at 3 µM: 29.5%
WI‐26 VA4 cells [3]; WI26VA4, read-out: CellTiter-Glo % of control, 3000 nM, Experiment #2, replicates
  activity at 3 µM: 29.4%
WI‐26 VA4 cells [3]; WI26VA4, read-out: CellTiter-Glo % of control, 10000 nM, Experiment #1, replicates
  activity at 10 µM: 30.3%
WI‐26 VA4 cells [3]; WI26VA4, read-out: CellTiter-Glo % of control, 10000 nM, Experiment #2, replicates
  activity at 10 µM: 20.9%
WI‐26 VA4 cells [3]; WI26VA4, read-out: CellTiter-Glo % of control, 30000 nM, Experiment #1, replicates
  activity at 30 µM: 18.8%
WI‐26 VA4 cells [3]; WI26VA4, read-out: CellTiter-Glo % of control, 30000 nM, Experiment #2, replicates
  activity at 30 µM: 10.1%
WI‐26 VA4 cells [3]; WI26VA4, read-out: CellTiter-Glo % of control, 100000 nM, Experiment #1, replicates
  activity at 100 µM: 0.73%
WI‐26 VA4 cells [3]; WI26VA4, read-out: CellTiter-Glo % of control, 100000 nM, Experiment #2, replicates
  activity at 100 µM: 0.58%
WI‐26 VA4 cells [3]; WI26VA4, read-out: CellTiter-Glo % of control, average, 3 nM, average
  activity at 0.003 µM: 102%
WI‐26 VA4 cells [3]; WI26VA4, read-out: CellTiter-Glo % of control, average, 10 nM, average
  activity at 0.01 µM: 96.5%
WI‐26 VA4 cells [3]; WI26VA4, read-out: CellTiter-Glo % of control, average, 30 nM, average
  activity at 0.03 µM: 91.9%
WI‐26 VA4 cells [3]; WI26VA4, read-out: CellTiter-Glo % of control, average, 100 nM, average
  activity at 0.1 µM: 94.6%
WI‐26 VA4 cells [3]; WI26VA4, read-out: CellTiter-Glo % of control, average, 300 nM, average
  activity at 0.3 µM: 75.5%
WI‐26 VA4 cells [3]; WI26VA4, read-out: CellTiter-Glo % of control, average, 1000 nM, average
  activity at 1 µM: 63.5%
WI‐26 VA4 cells [3]; WI26VA4, read-out: CellTiter-Glo % of control, average, 3000 nM, average
  activity at 3 µM: 27.5%
WI‐26 VA4 cells [3]; WI26VA4, read-out: CellTiter-Glo % of control, average, 10000 nM, average
  activity at 10 µM: 25.4%
WI‐26 VA4 cells [3]; WI26VA4, read-out: CellTiter-Glo % of control, average, 30000 nM, average
  activity at 30 µM: 13.7%
WI‐26 VA4 cells [3]; WI26VA4, read-out: CellTiter-Glo % of control, average, 100000 nM, average
  activity at 100 µM: 0.5%
WI‐26 VA4 cells [3]; [5]
  CellTiter-Glo LogIC50 (best-fit value): 3.159
WI‐26 VA4 cells [4]; 3 nM, 0.003 µM
  Collagen, % of control (single replicates per experiment): 95.16 % of control and 105.95 % of control and 100.28 % of control and 91.81 % of control and 92.46 % of control and 107.08 % of control and 97.10 % of control and 100.74 % of control and 124.62 % of control and 100.86 % of control
WI‐26 VA4 cells [4]; 100 nM, 0.1 µM
  Collagen, % of control (single replicates per experiment): 102.93 % of control and 54.86 % of control and 79.76 % of control and 92.40 % of control and 101.85 % of control and 87.72 % of control and 81.93 % of control and 104.58 % of control and 120.36 % of control
WI‐26 VA4 cells [4]; Fig 5E
  CC50/collagen IC50: 5.39
WI‐26 VA4 cells [4]; Homo sapiens, WI26VA4, read-out: Collagen IC50 (best-fit value), log(inhibitor) vs. response, variable slope (four parameters) (converted)
  IC50: 267 nM
WI‐26 VA4 cells [4]; Homo sapiens, WI26VA4, read-out: Collagen, % of control (single replicates per experiment), 30 nM
  activity at 0.03 µM: 104%
WI‐26 VA4 cells [4]; Homo sapiens, WI26VA4, read-out: Collagen, % of control (single replicates per experiment), 300 nM
  activity at 0.3 µM: 46.5%
WI‐26 VA4 cells [4]; Homo sapiens, WI26VA4, read-out: Collagen, % of control (single replicates per experiment), 1000 nM
  activity at 1 µM: 7.82%
WI‐26 VA4 cells [4]; Homo sapiens, WI26VA4, read-out: Collagen, % of control, average, 3 nM, average
  activity at 0.003 µM: 102%
WI‐26 VA4 cells [4]; Homo sapiens, WI26VA4, read-out: Collagen, % of control, average, 10 nM, average
  activity at 0.01 µM: 100%
WI‐26 VA4 cells [4]; Homo sapiens, WI26VA4, read-out: Collagen, % of control, average, 30 nM, average
  activity at 0.03 µM: 97.7%
WI‐26 VA4 cells [4]; Homo sapiens, WI26VA4, read-out: Collagen, % of control, average, 100 nM, average
  activity at 0.1 µM: 88.9%
WI‐26 VA4 cells [4]; Homo sapiens, WI26VA4, read-out: Collagen, % of control, average, 300 nM, average
  activity at 0.3 µM: 45.3%
WI‐26 VA4 cells [4]; Homo sapiens, WI26VA4, read-out: Collagen, % of control, average, 1000 nM, average
  activity at 1 µM: 9.08%
WI‐26 VA4 cells [4]; Homo sapiens, WI26VA4, read-out: Collagen, % of control, average, 3000 nM, average
  activity at 3 µM: 2.58%
WI‐26 VA4 cells [4]; Homo sapiens, WI26VA4, read-out: Collagen, % of control, average, 10000 nM, average
  activity at 10 µM: 2.33%
WI‐26 VA4 cells [4]; log(inhibitor) vs. response, variable slope (four parameters)
  Collagen HillSlope (best-fit value): -2.011
WI‐26 VA4 cells [4]; [5]
  Collagen LogIC50 (best-fit value): 2.427
WI‐26 VA4 cells [4]; relative to HF, Fig 5E
  Relative (CC50)/(collagen IC50): 1.61
